Measured values reported in patent US10647679B2, “N-methyl-D-aspartate receptor (NMDAR) potentiators, pharmaceutical compositions, and uses related thereto” (Emory University, priority 2015, dated 2020).
Read-outs that look alike come from different tables or passages of the source. Values belong to the compound of their own block, whether it stands above or below them.

Legend:
Type in all cases: cell-based
[1] = target: T1, recombinant rat GluN1/GluN2B (Rattus norvegicus, UniProt P35439+Q00960); test: Two-electrode voltage-clamp (TEVC) recordings in Xenopus laevis oocytes, GluN1/GluN2B
T1 construct: expressed in transfected cells; host or cells: Xenopus laevis oocytes (Ecocyte) injected with in vitro transcribed cRNA
T1 sequence (Q00960 27-1482, other chains not shown): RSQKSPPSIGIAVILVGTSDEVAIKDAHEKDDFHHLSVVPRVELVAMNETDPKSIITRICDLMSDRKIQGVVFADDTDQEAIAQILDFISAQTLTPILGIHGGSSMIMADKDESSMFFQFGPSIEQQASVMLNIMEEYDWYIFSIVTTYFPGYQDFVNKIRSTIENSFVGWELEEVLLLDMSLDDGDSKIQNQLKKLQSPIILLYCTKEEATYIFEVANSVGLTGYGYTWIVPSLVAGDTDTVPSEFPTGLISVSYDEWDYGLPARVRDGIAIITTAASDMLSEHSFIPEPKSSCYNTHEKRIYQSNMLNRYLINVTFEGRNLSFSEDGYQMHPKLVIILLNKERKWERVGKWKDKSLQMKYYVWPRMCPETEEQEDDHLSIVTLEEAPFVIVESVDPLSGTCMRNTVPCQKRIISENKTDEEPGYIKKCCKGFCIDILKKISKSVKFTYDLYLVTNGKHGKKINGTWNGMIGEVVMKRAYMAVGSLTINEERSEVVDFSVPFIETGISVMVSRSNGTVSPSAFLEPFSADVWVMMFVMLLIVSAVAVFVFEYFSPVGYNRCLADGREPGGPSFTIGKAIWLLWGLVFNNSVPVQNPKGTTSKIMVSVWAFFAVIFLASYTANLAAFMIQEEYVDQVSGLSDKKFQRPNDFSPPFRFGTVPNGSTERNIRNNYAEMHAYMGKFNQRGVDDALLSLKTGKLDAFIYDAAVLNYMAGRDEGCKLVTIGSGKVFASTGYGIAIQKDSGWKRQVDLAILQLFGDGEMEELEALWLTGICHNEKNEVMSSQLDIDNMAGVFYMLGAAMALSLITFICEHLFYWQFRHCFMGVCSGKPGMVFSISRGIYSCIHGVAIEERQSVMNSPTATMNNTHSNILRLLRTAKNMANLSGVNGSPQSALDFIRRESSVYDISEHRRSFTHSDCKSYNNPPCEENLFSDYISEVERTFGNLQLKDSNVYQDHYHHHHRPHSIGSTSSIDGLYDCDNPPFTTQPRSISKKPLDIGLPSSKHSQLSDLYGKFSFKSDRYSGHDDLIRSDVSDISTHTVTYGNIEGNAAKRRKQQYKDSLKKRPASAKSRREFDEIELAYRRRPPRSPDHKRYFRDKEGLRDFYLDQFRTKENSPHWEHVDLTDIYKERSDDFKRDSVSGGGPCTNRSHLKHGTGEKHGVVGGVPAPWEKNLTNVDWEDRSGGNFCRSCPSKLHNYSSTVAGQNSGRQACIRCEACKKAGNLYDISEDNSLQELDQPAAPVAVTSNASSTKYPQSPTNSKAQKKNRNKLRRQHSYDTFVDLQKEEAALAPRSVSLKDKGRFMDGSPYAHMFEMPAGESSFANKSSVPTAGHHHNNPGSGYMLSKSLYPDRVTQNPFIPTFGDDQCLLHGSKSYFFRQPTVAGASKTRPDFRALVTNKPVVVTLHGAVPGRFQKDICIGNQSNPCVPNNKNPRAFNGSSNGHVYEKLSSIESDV
Method: (§1) Data are from between 3-26 oocytes from 2-5 frogs for each compound and receptor tested.
(§2) Two-electrode voltage-clamp recordings were performed in Xenopus laevis oocytes (Ecocyte) expressing recombinant rat GluN1/GluN2A, GluN1/GluN2B, GluN1/GluN2C, GluN1/GluN2D. cRNA was transcribed in vitro (Ambion), diluted with nuclease free water, and injected at a ratio of 1:2 GluN1:GluN2 (5-10 ng total cRNA). The oocytes were kept in Barth's solution comprised of (in mM) 88 NaCl, 5 Tris-HCl, 2.4 NaHCO3, 1 KCl, 0.84 MgSO4, 0.41 CaCl2, and 0.33 Ca(NO3)2 at pH 7.4 at 15-17° C. for two to five days before experiments. Oocytes were placed into a perfusion chamber and continually washed with recording solution containing (in mM) 90 NaCl, 1.0 KCl, 0.5 BaCl2, 0.005 EDTA, and 10 HEPES at pH 7.4 (23° C.). Voltage clamp recordings were conducted at a holding potential of −40 mV. All compounds were made as 20 mM stock solutions in DMSO and dissolved to reach the final concentration in recording solution. Final DMSO content was 0.05-0.5% (vol/vol). Some oocytes expressing GluN1/GluN2A were pretreated with […] BAPTA-AM for 10 minutes or injected with […] of 2 mM K-BAPTA to prevent gradual run-up of the current response.

[2] = target: T2, recombinant rat GluN1/GluN2B (Rattus norvegicus, UniProt Q00960); test: as above; conditions: for I10 μM/Icontrol (mean ± SEM, %) GluN2B: 10 μM compound, Table 3; for I30 μM/Icontrol (mean ± SEM, %) GluN2B: 30 μM compound, Tables 5-7
T2 construct: expressed in transfected cells; host or cells: Xenopus laevis oocytes (Ecocyte) injected with in vitro transcribed cRNA
T2 sequence (Q00960 27-1482, other chains not shown): as above
Method: as §1, §2

[3] = target: T3, recombinant rat GluN1/GluN2C (Rattus norvegicus, UniProt P35439+Q00961); test: Two-electrode voltage-clamp (TEVC) recordings in Xenopus laevis oocytes, GluN1/GluN2C
T3 construct: expressed in transfected cells; host or cells: Xenopus laevis oocytes (Ecocyte) injected with in vitro transcribed cRNA
T3 sequence (Q00961 20-1237, other chains not shown): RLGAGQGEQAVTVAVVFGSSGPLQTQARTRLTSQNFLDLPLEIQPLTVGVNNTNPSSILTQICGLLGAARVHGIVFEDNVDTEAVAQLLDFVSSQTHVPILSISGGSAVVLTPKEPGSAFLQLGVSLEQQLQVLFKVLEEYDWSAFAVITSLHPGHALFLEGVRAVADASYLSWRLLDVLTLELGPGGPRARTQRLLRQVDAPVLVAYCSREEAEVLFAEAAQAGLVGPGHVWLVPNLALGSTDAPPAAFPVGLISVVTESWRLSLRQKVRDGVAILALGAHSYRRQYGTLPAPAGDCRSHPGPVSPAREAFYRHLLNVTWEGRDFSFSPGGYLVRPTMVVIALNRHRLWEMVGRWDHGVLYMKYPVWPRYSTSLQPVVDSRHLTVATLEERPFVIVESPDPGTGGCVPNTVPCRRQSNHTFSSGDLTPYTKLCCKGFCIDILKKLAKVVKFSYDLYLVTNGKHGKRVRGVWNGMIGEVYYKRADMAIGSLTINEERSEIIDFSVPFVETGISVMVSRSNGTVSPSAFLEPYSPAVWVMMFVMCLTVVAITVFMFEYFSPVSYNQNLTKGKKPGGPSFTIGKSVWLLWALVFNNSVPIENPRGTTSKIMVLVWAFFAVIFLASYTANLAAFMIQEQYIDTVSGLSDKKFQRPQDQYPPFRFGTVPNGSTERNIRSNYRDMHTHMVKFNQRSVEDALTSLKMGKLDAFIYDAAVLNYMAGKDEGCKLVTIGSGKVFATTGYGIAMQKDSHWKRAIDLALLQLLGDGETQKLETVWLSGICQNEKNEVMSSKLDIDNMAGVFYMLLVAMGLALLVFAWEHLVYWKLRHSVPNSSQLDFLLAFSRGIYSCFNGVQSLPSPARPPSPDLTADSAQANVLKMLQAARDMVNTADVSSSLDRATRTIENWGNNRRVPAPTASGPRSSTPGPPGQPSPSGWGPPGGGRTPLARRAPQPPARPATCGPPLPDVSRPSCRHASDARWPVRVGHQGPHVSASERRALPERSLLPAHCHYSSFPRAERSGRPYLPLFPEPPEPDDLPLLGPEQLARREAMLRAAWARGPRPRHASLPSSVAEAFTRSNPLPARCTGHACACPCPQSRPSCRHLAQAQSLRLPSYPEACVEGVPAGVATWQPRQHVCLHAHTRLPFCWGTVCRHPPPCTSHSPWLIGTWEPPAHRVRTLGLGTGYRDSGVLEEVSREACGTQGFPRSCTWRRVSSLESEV
Method: as §1, §2

[4] = target: T4, recombinant rat GluN1/GluN2C (Rattus norvegicus, UniProt Q00961); test: as above; conditions: for I10 μM/Icontrol (mean ± SEM, %) GluN2C: 10 μM compound, Table 3; for I30 μM/Icontrol (mean ± SEM, %) GluN2C: 30 μM compound, Tables 5-7
T4 construct: expressed in transfected cells; host or cells: Xenopus laevis oocytes (Ecocyte) injected with in vitro transcribed cRNA
T4 sequence (Q00961 20-1237, other chains not shown): as above
Method: as §1, §2

[5] = target: T5, recombinant rat GluN1/GluN2D (Rattus norvegicus, UniProt P35439+Q62645); test: Two-electrode voltage-clamp (TEVC) recordings in Xenopus laevis oocytes, GluN1/GluN2D
T5 construct: expressed in transfected cells; host or cells: Xenopus laevis oocytes (Ecocyte) injected with in vitro transcribed cRNA
Method: as §1, §2

[6] = target: T6, recombinant rat GluN1/GluN2D (Rattus norvegicus, UniProt Q62645); test: as above; conditions: for I10 μM/Icontrol (mean ± SEM, %) GluN2D: 10 μM compound, Table 3; for I30 μM/Icontrol (mean ± SEM, %) GluN2D: 30 μM compound, Tables 5-7
T6 construct: expressed in transfected cells; host or cells: Xenopus laevis oocytes (Ecocyte) injected with in vitro transcribed cRNA
Method: as §1, §2

[7] = fitted when potentiation at 30 μM exceeded 120%, Tables 3, 5-7, read-out: EC50 (max.) (μM %) GluN2B: fitted EC50
[8] = percentage of the initial glutamate (100 μM) and glycine (30 μM) current, read-out: EC50 (max.) (μM %) GluN2B: fitted maximum response
[9] = percentage of the initial glutamate (100 μM) and glycine (30 μM) current, read-out: EC50 (max.) (μM %) GluN2C: fitted maximum response
[10] = fitted when potentiation at 30 μM exceeded 120%, Tables 3, 5-7, read-out: EC50 (max.) (μM %) GluN2D: fitted EC50
[11] = percentage of the initial glutamate (100 μM) and glycine (30 μM) current, read-out: EC50 (max.) (μM %) GluN2D: fitted maximum response
[12] = maximum potentiation, response without modulator = 100%, read-out: GluN2B EC50 (μM)/Max %: Max %
[13] = maximum potentiation, response without modulator = 100%, read-out: GluN2C EC50 (μM)/Max %: Max %
[14] = maximum potentiation, response without modulator = 100%, read-out: GluN2D EC50 (μM)/Max %: Max %
[15] = fitted when potentiation at 30 μM exceeded 120%, Tables 3, 5-7, read-out: EC50 (max.) (μM %) GluN2C: fitted EC50
[16] = Tables 11-13, read-out: EC50 & Max Effect: 2C
[17] = Tables 11-13, read-out: EC50 & Max Effect: 2C Max (%)
[18] = Tables 11-13, read-out: EC50 & Max Effect: 2D
[19] = Tables 11-13, read-out: EC50 & Max Effect: 2D Max (%)
[20] = read-out: EC50 & Max Effect: 2C Max (%)

Compound: COc1ccc(OC[C@@H]2c3ccc(OC(C)C)cc3CCN2C(=O)c2cccc(Cl)c2)cc1 [(S)-(−)-1180-55]
- EC50 [1, 7]: 5.2 µM
- Emax [1, 8]: 307%
- I10 μM/Icontrol (mean ± SEM, %) GluN2B [2]: 269%
- Emax [3, 9]: 360%
- I10 μM/Icontrol (mean ± SEM, %) GluN2C [4]: 361%
- EC50 [5, 10]: 4.5 µM
- Emax [5, 11]: 350%
- I10 μM/Icontrol (mean ± SEM, %) GluN2D [6]: 336%

Compound: CC(C)Oc1ccc(OCC2c3ccc(OC(C)C)cc3CCN2C(=S)c2cccc(Cl)c2)cc1 (centres unmarked) [1180-265]
- EC50 ([1]; untitled tables after drawing 25 and drawing 36, read-out: EC50 (μM) GluN2B): 0.6 µM
- EC50 ([3]; untitled tables after drawing 25 and drawing 36, read-out: EC50 (μM) GluN2C): 0.3 µM
- EC50 ([5]; untitled tables after drawing 25 and drawing 36, read-out: EC50 (μM) GluN2D): 0.4 µM

Compound: COc1ccc(OCC2c3cc(OC)c(OC)cc3CCN2C(=O)c2ccccc2)cc1 (centres unmarked) [drawing 33 R1=H R2=H R3=H R4=OMe R5=OMe]
- EC50 [3, 16]: 12.3 µM
- Emax [3, 17]: 450%
- EC50 [5, 18]: 11.4 µM
- Emax [5, 19]: 156%

Compound: COc1ccc(OCC2c3ccc(OCc4ccccc4)cc3CCN2C(=O)c2cccc(Br)c2)cc1 (centres unmarked) [drawing 33 R1=Br R2=H R3=H R4=OBn R5=H]
- EC50 ([3]; EC50 & Max Effect: 2C (μM)): 0.31 µM
- Emax [3, 20]: 257%
- EC50 ([5]; EC50 & Max Effect: 2D (μM)): 0.27 µM
- Emax ([5]; read-out: EC50 & Max Effect: 2D Max (%)): 219%

Compound: CCOc1ccc(OC[C@@H]2c3ccc(OC(C)C)cc3CCN2C(=O)c2cccc(C(F)(F)F)c2)cc1 [(S)-(−)-1180-92]
- EC50 [1, 7]: 1.9 µM
- Emax [1, 8]: 210%
- I30 μM/Icontrol (mean ± SEM, %) GluN2B [2]: 207%
- EC50 [3, 15]: 1.2 µM
- Emax [3, 9]: 141%
- I30 μM/Icontrol (mean ± SEM, %) GluN2C [4]: 132%
- I30 μM/Icontrol (mean ± SEM, %) GluN2D [6]: 116%

Compound: COc1ccc(OC[C@@H]2c3ccc(OC(C)C)cc3CCN2C(=S)c2cccc(Cl)c2)cc1 [(S)-(−)-1180-163]
- EC50 [1, 7]: 0.28 µM
- Emax [1, 8]: 202%
- I10 μM/Icontrol (mean ± SEM, %) GluN2B [2]: 203%
- EC50 [3, 15]: 0.5 µM
- Emax [3, 9]: 316%
- I10 μM/Icontrol (mean ± SEM, %) GluN2C [4]: 302%
- EC50 [5, 10]: 0.5 µM
- Emax [5, 11]: 313%
- I10 μM/Icontrol (mean ± SEM, %) GluN2D [6]: 299%

Compound: COc1ccc(OCC2c3ccc(OC(C)C)cc3CCN2C(=O)c2cccc(Cl)c2)cc1 (centres unmarked) [1180-55]
- EC50 [1, 7]: 5 µM
- Emax [1, 12]: 193%
- Emax [1, 8]: 215%
- I10 μM/Icontrol (mean ± SEM, %) GluN2B [2]: 191%
- Emax [3, 13]: 266%
- Emax [3, 9]: 250%
- Emax [3, 20]: 266%
- I10 μM/Icontrol (mean ± SEM, %) GluN2C [4]: 231%
- EC50 ([5]; EC50 & Max Effect: 2D (μM)): 2.9 µM
- EC50 [5, 10]: 4.3 µM
- Emax [5, 11]: 323%
- I10 μM/Icontrol (mean ± SEM, %) GluN2D [6]: 281%

Further lines, results first:

- Emax [1, 12]: 184%
- Emax [3, 13]: 179%
- Emax [5, 14]: 145%
Compound: CCOc1ccc(OCC2c3ccc(OC(C)C)cc3CCN2C(=S)c2cccc(Cl)c2)cc1 (centres unmarked) [1180-149]

- Emax [1, 12]: 187%
- Emax [3, 13]: 161%
- Emax [5, 14]: 130%
Compound: CCOc1ccc(OCC2c3ccc(OC(C)C)cc3CCN2C(=S)c2cccc(Br)c2)cc1 (centres unmarked) [1180-156]

- EC50 [1, 7]: < 0.5 µM
- Emax [1, 8]: 213%
- I30 μM/Icontrol (mean ± SEM, %) GluN2B [2]: 206%
- EC50 [3, 15]: 0.46 µM
- Emax [3, 9]: 163%
- I30 μM/Icontrol (mean ± SEM, %) GluN2C [4]: 153%
- EC50 [5, 10]: 0.47 µM
- Emax [5, 11]: 190%
- I30 μM/Icontrol (mean ± SEM, %) GluN2D [6]: 185%
Compound: CCOc1ccc(OC[C@@H]2c3ccc(OC(C)C)cc3CCN2C(=S)c2cccc(F)c2)cc1 [(S)-(−)-1180-154]

- EC50 [1, 7]: 0.21 µM
- Emax [1, 8]: 173%
- I30 μM/Icontrol (mean ± SEM, %) GluN2B [2]: 156%
- EC50 [3, 15]: 0.24 µM
- Emax [3, 9]: 182%
- I30 μM/Icontrol (mean ± SEM, %) GluN2C [4]: 146%
- EC50 [5, 10]: 0.3 µM
- Emax [5, 11]: 160%
- I30 μM/Icontrol (mean ± SEM, %) GluN2D [6]: 157%
Compound: CCOc1ccc(OC[C@H]2c3ccc(OC(C)C)cc3CCN2C(=S)c2cccc(C(F)(F)F)c2)cc1 [(R)-(+)-1180-168]

- EC50 [3, 16]: 4.1 µM
- Emax [3, 17]: 170%
- EC50 [5, 18]: 4.2 µM
- Emax [5, 19]: 157%
Compound: CCOc1ccc(OCC2c3ccc(OC4CCCC4)cc3CCN2C(=O)c2cccc(F)c2)cc1 (centres unmarked) [1180-112]

- Emax [3, 13]: 173%
- Emax [5, 14]: 174%
Compound: CCOc1ccc(OCC2c3ccc(OC(C)C)cc3CCN2C(=S)Nc2cccc(Cl)c2)cc1 (centres unmarked) [1180-210]
